Patent publication US4489163A, “rCRF and analogs” (The Salk Institute for Biological Studies, priority 1983, dated 1984)
Entries after “also recorded” stand apart in the source; their conditions may differ.

Legend:
[1] = tested on: ACTH and β-endorphin-like (β-END-LI) secretion; assay: ACTH and β-END-LI secretion in vivo after intravenous administration; design: species or system rats; conditions: for stimulation of ACTH and β-END-LI secretion in vivo (words): several rat preparations
From the text: (§1) The synthetic and the natural rCRF were examined for their effects on the secretion of ACTH and β-endorphin in vitro and the synthetic rCRF was also examined in vivo.

[2] = tested on: cultured rat pituitary cells; assay: secretion of ACTH and β-endorphin by cultured rat pituitary cells in vitro; format: cell-based
From the text: as §1

[3] = activity and learning performance after administration into the ventricles; format: in vivo; conditions: administered into the ventricles, rats
From the text: Because ACTH and β-END secretion is the "sine qua non" of an animal's response to stress, it was not surprising that rCRF has significant effects on the brain as a mediator of the body's stress response. Accordingly, rCRF may also find application in modifying the mood, learning and behavior of normal and mentally disordered individuals. Because rCRF and its analogs elevate the levels of ACTH, β-END, β-lipotropin, other pro-opiomelanocortin gene products and corticosterone, its administration can be used to induce their effects on the brain and its periphery to thereby influence memory, mood, pain appreciation, etc., and more specifically, alertness, depression and/or anxiety.

[4] = lowering of blood pressure in dogs; format: in vivo
[5] = lowering of blood pressure in rats; format: in vivo

CC[C@H](C)[C@H](NC(=O)[C@@H](NC(=O)[C@H](CCC(=O)O)NC(=O)[C@H](CCSC)NC(=O)[C@H](CC(C)C)NC(=O)[C@H](CCCCN)NC(=O)[C@H](CCCNC(=N)N)NC(=O)[C@H](CC(N)=O)NC(=O)[C@H](CO)NC(=O)[C@H](Cc1c[nH]cn1)NC(=O)[C@H](C)NC(=O)[C@H](CCC(N)=O)NC(=O)[C@H](CCC(N)=O)NC(=O)[C@H](C)NC(=O)[C@H](CC(C)C)NC(=O)[C@H](CCC(N)=O)NC(=O)[C@H](CCC(=O)O)NC(=O)[C@H](C)NC(=O)[C@H](CCCNC(=N)N)NC(=O)[C@H](C)NC(=O)[C@H](CCSC)NC(=O)[C@H](CCC(=O)O)NC(=O)[C@H](CC(C)C)NC(=O)[C@@H](NC(=O)[C@H](CCC(=O)O)NC(=O)[C@H](CCCNC(=N)N)NC(=O)[C@H](CC(C)C)NC(=O)[C@H](CC(C)C)NC(=O)[C@H](Cc1c[nH]cn1)NC(=O)[C@H](Cc1ccccc1)NC(=O)[C@@H](NC(=O)[C@H](CC(C)C)NC(=O)[C@H](CC(=O)O)NC(=O)[C@H](CC(C)C)NC(=O)[C@H](CO)NC(=O)[C@@H](NC(=O)[C@@H]1CCCN1C(=O)[C@@H]1CCCN1C(=O)[C@H](CCC(=O)O)NC(=O)[C@H](CCC(=O)O)NC(=O)[C@@H](N)CO)[C@@H](C)CC)[C@@H](C)O)C(C)C)[C@@H](C)CC)C(N)=O [synthetic rCRF]
elevation of ACTH and β-endorphin-like (β-END-LI) secretion ([1]; in vivo doses from 30 ng to 3 μg/Kg of body weight): 5-20 fold
stimulation of ACTH and β-END-LI secretion in vivo (words) [1]: stimulate ACTH and β-endorphin activies
stimulation of ACTH and β-END-LI secretion in vivo (words) ([1]; listed as Synthetic rCRF): powerful stimulator of ACTH and β-END-LI secretion in vivo
time plasma levels of ACTH and β-END-LI are elevated ([1]; intravenous, nembutal-anesthesized male rats and quiescent male or female rats with indwelling cannulae): 5 to 20 min
EC50 ([2]; concentration giving half-maximal response, cultured rat pituitary cells): ~100 pM
minimal response, secretion of ACTH and β-endorphin ([2]; concentration giving minimal response, cultured rat pituitary cells): about 10 picomolar
maximal concentrations, secretory response at a plateau level ([2]; cultured rat pituitary cells): > 5 nM
stimulation of secretion of ACTH and β-endorphin in vitro ([2]; in vitro): high potency; also recorded: stimulate ACTH and β-endorphin activies
activity [3]: increases activity
learning performance [3]: improves learning performance
lowering of blood pressure [4]: dramatic effect to lower blood pressure
lowering of blood pressure ([5]; rats): dramatic effect to lower blood pressure
lowering of blood pressure ([5]; species not given, general procedure of Example III): substantially lower blood pressure for an extended time period
